Measurements from patent publication US4278797A, “Intermediates to phenylmorphans and method of preparation thereof” (priority 1980, dated 1981).
Read-outs that look alike come from different tables or passages of the source.

Experiments:
[1] = compared with morphine or with 5-(3-hydroxyphenyl)-2-methylmorphan; literature; cited from earlier work
[2] = literature; cited from earlier work
Rat tail jerk = assay: rat-tail jerk assay (light beam or heat source applied to the tail); assay type: in vivo; conditions: dose causing a two second delay in tail removal compared to control animals receiving no drug; for ED (2 s delay): Rattus norvegicus, sc, subcutaneous, read-out: Rat tail jerk subcutaneous injection ED2 seconds
Procedure: The phenylmorphan derivatives provided by this invention are useful as analgesics in the treatment of pain in animals suffering from pain and in need of treatment. […] One such test is the rat-tail jerk assay. In this test, a light beam or heat source is applied to the tail of a rat. The pain threshold of the animal is measured by the latency of the rat to remove its tail from the pain source. Column 2 in the following table presents the effective subcutaneous dose in mg/kg of a number of the compounds of this invention which causes a two second delay (ED2 sec) in tail removal compared to the control animals receiving no drug.

Mouse writhing = assay: mouse writhing test (intraperitoneal acetic acid); assay type: in vivo, mice; conditions: dose reducing writhing by fifty percent; for ED50: Mus musculus
Excerpt: In another test designed to show analgesic activity, mice are given an intraperitaneal injection of acetic acid which causes the animals to writh. An effective analgesic is one that reduces the writhings. Column 3 of the following table presents the effective sucutaneous and oral doses in mg/kg of a compound of this invention required to reduce the writing in test animals by fifty percent (ED50).

[3] = sc, subcutaneous, read-out: Mouse writhing s.c. ED50
[4] = oral, read-out: Mouse writhing oral ED50

Row | Structure (SMILES) | ED (2 s delay) (Rat tail jerk) | ED50 (Mouse writhing; [3]) | ED50 (Mouse writhing; [4]) | also measured
1 | CN1CCC2(c3cccc(O)c3)CCCC1C2 (racemic) [racemic 5-(3-hydroxyphenyl)-2-methylmorphan, 5-(3-hydroxyphenyl)-2-methylmorphan] |  |  |  | analgesic potency [1]: nearly equivalent to that of morphine
2 | CN1CCC2(c3cccc(O)c3)CCCC1C2 (single isomer, unassigned; (-)) [(-)-isomer of 5-(3-hydroxyphenyl)-2-methylmorphan, (-)-5-(3-hydroxyphenyl)-2-methylmorphan] |  |  |  | analgesic potency [1]: morphine-like potency; physical dependence capacity [2]: no physical dependence capacity
3 | CC1CC2CC(c3cccc(O)c3)(C1)CC(C)N2C (stereo not drawn) [2,3,7-Trimethyl-5-(3-hydroxyphenyl)morphan] | 0.5 mg/kg | 0.66 mg/kg | 14 mg/kg | 
4 | COc1cccc(C23CC(C)CC(C2)N(C)C(C)C3)c1 (stereo not drawn) [2,3,7-Trimethyl-5-(3-methoxyphenyl)morphan] | 20 mg/kg | 7.8 mg/kg | 22 mg/kg | 
5 | CC1CC2(c3cccc(O)c3)CCCC(C2)N1C (stereo not drawn) [2,3-dimethyl-5-(3-hydroxyphenyl)morphan, 2,3-Dimethyl-5-(3-hydroxyphenyl)morphan] | 2 mg/kg | 2 mg/kg | 23 mg/kg | 
6 | COc1cccc(C23CCCC(C2)N(C)C(C)C3)c1 (stereo not drawn) [2,3-dimethyl-5-(3-methoxyphenyl)morphan, 2,3-Dimethyl-5-(3-methoxyphenyl)morphan] |  |  |  | Rat tail jerk subcutaneous injection ED2 seconds (Rat tail jerk): 15.0 mg/kg; Mouse writhing oral ED50 (Mouse writhing; oral): 17.0 mg/kg; Mouse writhing s.c. ED50 (Mouse writhing; subcutaneous): 13.0 mg/kg
7 | CC1CC2CC(c3cccc(O)c3)(CCN2C)C1 (stereo not drawn) [2,7-dimethyl-5-(3-hydroxyphenyl)morphan, 2,7-Dimethyl-5-(3-hydroxyphenyl)morphan] | 0.5 mg/kg | 0.72 mg/kg | 28.5 mg/kg | 
8 | COc1cccc(C23CCN(C)C(CC(C)C2)C3)c1 (stereo not drawn) [2,7-dimethyl-5-(3-methoxyphenyl)morphan, 2,7-Dimethyl-5-(3-methoxyphenyl)morphan] | 10 mg/kg | 3.5 mg/kg | 28.5 mg/kg | 
9 | CN1CCC2(c3cccc(O)c3)CCCC1C2 (stereo not drawn) [2-methyl-5-(3-hydroxyphenyl)-morphan, 2-Methyl-5-(3-hydroxyphenyl)morphan] | 1 mg/kg | 1.3 mg/kg | 29 mg/kg | 
10 | COc1cccc(C23CCCC(C2)N(C)CC3)c1 (stereo not drawn) [2-methyl-5-(3-methoxyphenyl)-morphan, 2-Methyl-5-(3-methoxyphenyl)morphan] | 10 mg/kg | 9.6 mg/kg | 27.5 mg/kg | 
